Results on 22 molecules are retold here after PubChem BioAssay (NCI).

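Grown in 96-well plates, cells were treated for 48 hours with each compound at five concentrations. Insufficient inhibition: endpoint recorded as highest concentration tested. GI50 is the concentration that inhibits growth by half. TGI: total growth inhibition.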

Common to all, as to test: DTP human tumour cell line panel, 48 h
Assay [1] relates to HCT-116 colon.
For assay [2], the system named is SF-268 CNS.
Assay [3] has as its system UACC-62 melanoma.
Assay [4] relates to KM12 colon.
Assay [5] deals with OVCAR-4 ovarian.
In assay [6] the test system is A498 renal.
For assay [7], the system named is SF-539 CNS.
For assay [8], the system named is NCI-H226 lung.
The test system of assay [9] is UACC-257 melanoma.
Assay [10] deals with MALME-3M melanoma.

As usually defined, the TGI is the concentration at which net growth stops. Low values mean more potent growth arrest, high ones less potent growth arrest. Take `C1CN2N3CCCC23C1` (configuration not stated): the TGI in assay [1], in assay [2], in [3], in [4], in assay [5] and in assay [6] was over 100 µM throughout. In addition, the TGI in assay [7], in assay [8], in assay [9] and in assay [10] was over 100 µM each time.
In general, GI50 refers to the concentration giving 50% growth inhibition. As for `CC[n+]1ccc2c(c1)C(=O)c1nccc3c1c-2nc1ccccc13`, the GI50 in assay [1] is 1.1 µM; in assay [2], 0.34 µM; in [3], 0.763 µM; in assay [4], 2.41 µM; in assay [5], 0.941 µM; in assay [6] it was 0.874 µM. The GI50 is 0.489 µM in assay [7], 1.13 µM in assay [8], 3.42 µM in assay [9] and 0.762 µM in [10]. Besides, the TGI in assay [1] is 7.18 µM; in [2], 3.63 µM; in assay [3] it was 2.52 µM; in assay [4], 15.2 µM; in assay [5], 4.1 µM; in assay [6], 6.13 µM. For the same molecule, the TGI came to 1.47 µM in assay [7], 5.51 µM in assay [8], 9.06 µM in assay [9] and 2.03 µM in [10].
In the case of `Cc1cccc(C(C)(C)C)c1NC(=O)C(=O)Cc1nc2ccccc2s1`, the TGI in assay [1], in assay [2], in assay [3], in assay [4], in [5] and in [6] was over 100 µM each time. The concentration for total growth inhibition (TGI) in assay [7], in [8], in [9] and in [10] was over 100 µM throughout.
For the molecule `CCCCCCCCCCCCOC1C(CNCC2OC3OC(C)(C)OC3C2NC(=O)Nc2ccc(C(=O)OCC)cc2)OC2OC(C)(C)OC21` (configuration not stated), the GI50 in [1] is 1.72 µM; in assay [2], 1.63 µM; in [3], 3.39 µM; in assay [4], 1.96 µM; in [5], 1.87 µM; in [6], 12.8 µM. In addition, the GI50 in assay [7] was 1.79 µM; in assay [8], 6.23 µM; in assay [9] it was 5.05 µM; in assay [10], 8.99 µM. The TGI was determined as 3.14 µM in [1]; 3.24 µM in [2]; 12.2 µM in [3]; 3.69 µM in [4]; 4.25 µM in assay [5]; 25.5 µM in [6]. In addition, the TGI in assay [7] is 3.52 µM; in assay [8], 22.7 µM; in assay [9] it was 16.2 µM; in [10], 29.1 µM.
For the molecule `Cc1c(Cl)cccc1Nc1ncccc1C(=O)O`, the GI50 is 46.8 µM in [1]; over 100 µM in assay [2]; 48.3 µM in [3]; over 100 µM in assay [4]; 90.6 µM in [5]; 34.3 µM in assay [6]. The GI50 in assay [7] is 77.2 µM; in assay [8], over 100 µM; in assay [9], over 100 µM; in assay [10], 73.4 µM. Further, the concentration for total growth inhibition (TGI) in assay [1], in assay [2], in assay [3], in assay [4], in assay [5] and in assay [6] was over 100 µM each time. For the same molecule, the concentration for total growth inhibition (TGI) in [7], in assay [8], in [9] and in assay [10] was over 100 µM throughout.
As for `CN(C)c1ccc(/C=C2\C[N+](C)(C)C/C(=C\c3ccc(N(C)C)cc3)C2=O)cc1`, the concentration for total growth inhibition (TGI) in assay [1] is 22.5 µM; in assay [2], 66.2 µM; in assay [3] it was 30.6 µM; in [4], 19.1 µM; in assay [5], over 100 µM; in assay [6], over 100 µM. Besides, the TGI in [7] was found to be 49.9 µM; in assay [8], 90.8 µM; in assay [9], 32.4 µM; in [10] it was 46.4 µM.
With `C#CC(C)(C)Oc1cc(O)c2c(=O)c3ccccc3n(C)c2c1`, the total growth inhibition concentration (TGI) is over 100 µM in assay [1]; over 100 µM in assay [2]; over 100 µM in [3]; over 100 µM in assay [5]; over 100 µM in assay [6]; 58.1 µM in assay [7]. The TGI in assay [8], in [9] and in assay [10] was over 100 µM each time.
With `COc1cc2c(NCCCCCCO[N+](=O)[O-])ncnc2c(OC)c1OC`, the concentration for total growth inhibition (TGI) was 62.5 µM in assay [1]; over 100 µM in [2]; 43.6 µM in assay [3]; 33.5 µM in [4]; over 100 µM in [5]; 52 µM in [6]. For the same molecule, the total growth inhibition concentration (TGI) in assay [7] was determined as 71.1 µM; in assay [8] it was 45.5 µM; in [9], 36.5 µM; in [10] it was 31.9 µM.
Take `CN1CCCNCCN(CCc2ccccn2)CCCN(C)CC1`: the total growth inhibition concentration (TGI) in [1], in assay [2], in assay [3], in [4], in assay [5] and in assay [6] was over 100 µM in each case. For the same molecule, the total growth inhibition concentration (TGI) in [7], in [8], in assay [9] and in [10] was over 100 µM in each case.
Take `CC1=C(CCCOC(=O)NCCCl)C2=C(C)C3(CC3)[C@@](C)(O)C(=O)C2=C1`: the GI50 is 2.96 µM in assay [1]; 3.07 µM in [2]; 2.02 µM in [3]; 10.5 µM in assay [4]; 2.7 µM in [5]; 1.88 µM in assay [6]. Further, the GI50 in [7] is 2.04 µM; in assay [8] it was 2.4 µM; in assay [9], 3.91 µM; in [10], 1.85 µM. For the same molecule, the total growth inhibition concentration (TGI) in assay [1] is over 100 µM; in assay [2], 51.7 µM; in assay [3], 4.96 µM; in [4] it was 88.2 µM; in [5], over 100 µM; in assay [6], 3.95 µM. Also, the concentration for total growth inhibition (TGI) in assay [7] is 5.5 µM; in assay [8], 6.33 µM; in assay [9], over 100 µM; in assay [10], 4.22 µM.
Regarding `N#Cc1cnn2ccn(C3OC(COC(=O)c4ccccc4)C(OC(=O)c4ccccc4)C3OC(=O)c3ccccc3)c12` (configuration not stated), the total growth inhibition concentration (TGI) in assay [1] is over 21.5 µM; in assay [2] it was over 21.5 µM; in assay [3] it was over 21.5 µM; in [4], 21.5 µM; in assay [5], over 21.5 µM; in assay [6], 21.5 µM. The concentration for total growth inhibition (TGI) in [7], in [8], in assay [9] and in assay [10] was over 21.5 µM in each case.
`C[C@]12CCC(=O)C=C1CC[C@@H]1C2CC[C@]2(C)NC(=O)C(C#N)CC12` (some centres not stated): the TGI in [1], in assay [3], in assay [5], in assay [6], in assay [7] and in assay [8] was over 100 µM each time. The total growth inhibition concentration (TGI) in assay [9] and in assay [10] was over 100 µM in each case.
As to `CCCNC(=O)OCc1c(COC(=O)NCCC)c(-c2ccc(Cl)c(Cl)c2)n2c1CCC2`, the TGI is 17.7 µM in assay [1]; 21.5 µM in [2]; 13.3 µM in assay [3]; 28.5 µM in assay [4]; 3.24 µM in assay [6]; 11.3 µM in [7]. Also, the figures for the TGI in assay [8], in assay [9] and in assay [10] were 7.53 µM, 20.1 µM and 9.72 µM, respectively.
Turning to `O=C1NC(=O)C2C(=O)NC(=O)C1C2(c1ccccc1)c1ccc(Cl)cc1` (configuration not stated), the TGI in assay [2], in assay [3], in assay [4], in [5], in [6] and in [7] was over 100 µM in each case. For the same molecule, the total growth inhibition concentration (TGI) in assay [8], in [9] and in assay [10] was over 100 µM each time.
With `CN(C)c1ccc2c(c1)oc(=O)c1ccccc12`, the concentration for total growth inhibition (TGI) in [1] amounted to 25.9 µM; in [2], 22.7 µM; in [3] it was 30.4 µM; in assay [5] it was 28.2 µM; in [6] it was 33 µM; in assay [7] it was 35.5 µM. In addition, the results for the concentration for total growth inhibition (TGI) in assay [8], in [9] and in assay [10] were 31.9 µM, 28.3 µM and 24.5 µM, respectively.
`O=C(O)c1cc(S(=O)(=O)N=NC=C2c3ccccc3N(O)c3ccccc32)ccc1O`: the TGI is 27.9 µM in assay [1]; 34.4 µM in assay [2]; 22 µM in assay [3]; over 100 µM in assay [4]; 19.8 µM in assay [5]; 41 µM in assay [6]. Also, the results for the TGI in assay [8], in assay [9] and in [10] were 72.4 µM, 88.2 µM and 50.3 µM, respectively.
Regarding `C/C(=N\NC(N)=S)c1ccc(C)cc1C`, the TGI in assay [1], in assay [3], in assay [4], in [5], in [6] and in assay [7] was over 100 µM each time. In addition, the TGI in assay [8], in assay [9] and in [10] was over 100 µM in each case.
As for `O=S(=O)(O)C(O)/C=C/c1ccccc1` (configuration not stated), the total growth inhibition concentration (TGI) in assay [1], in assay [2], in [3], in assay [4], in [5] and in assay [6] was over 100 µM throughout. Besides, the TGI in [8], in [9] and in assay [10] was over 100 µM in each case.
Consider `O=C(/C=C(\[O-])c1ccccc1)CCCCCCC(=O)/C=C(\[O-])c1ccccc1.O=C(/C=C(\[O-])c1ccccc1)CCCCCCC(=O)/C=C(\[O-])c1ccccc1.O=C(/C=C(\[O-])c1ccccc1)CCCCCCC(=O)/C=C(\[O-])c1ccccc1.[La+3].[La+3]`, for which the GI50 in assay [1], in assay [2], in [3], in assay [5], in assay [6] and in [8] was over 50 µM each time. Moreover, the GI50 in assay [9] and in assay [10] was over 50 µM in each case. For the same molecule, the TGI in [1], in assay [2], in assay [3], in assay [5], in assay [6] and in assay [8] was over 50 µM each time. In addition, the TGI in assay [9] and in assay [10] was over 50 µM throughout.
With `COc1ccc(-n2cc(-c3ccc(OC)c(OC)c3)[nH]c2=S)cc1Cl`, the GI50 in [1] was over 100 µM; in [2], 58.7 µM; in assay [3], over 100 µM; in [4] it was over 100 µM; in [5], over 100 µM; in assay [6], over 100 µM. Also, the results for the GI50 in assay [7], in assay [8] and in assay [10] were 39.4 µM, over 100 µM and over 100 µM, respectively. For the same molecule, the total growth inhibition concentration (TGI) in assay [1], in assay [2], in assay [3], in assay [4], in assay [5] and in assay [6] was over 100 µM throughout. Besides, the TGI in [7], in [8] and in assay [10] was over 100 µM each time.
As to `COc1cccc(-c2nn(-c3ccccc3)cc2-c2ccnc(NCCCNS(=O)(=O)c3cccc(F)c3)c2)c1`, the GI50 is 3.67 µM in [1]; 5.63 µM in [2]; 4.65 µM in assay [3]; 3.38 µM in [4]; 3.28 µM in assay [5]; 3.52 µM in assay [6]. Moreover, the GI50 was 6.75 µM in [8], 5.12 µM in assay [9] and 5.16 µM in assay [10]. Besides, the total growth inhibition concentration (TGI) in assay [1], in [2], in assay [3], in assay [4], in assay [5] and in [6] was over 100 µM in each case. Also, the TGI in assay [8] was over 100 µM; in assay [9], 39.3 µM; in assay [10] it was over 100 µM.
In the case of `CN(C)CCNC(=O)c1cccc2nc3c(Cl)cccc3nc12`, the TGI was 16.1 µM in [1]; 3.87 µM in assay [3]; 30.4 µM in assay [4]; 27.6 µM in [5]; 16.9 µM in assay [6]; 16.8 µM in [7]. Also, the TGI came out at 13.5 µM in assay [8], 26.9 µM in assay [9] and 8.05 µM in assay [10].
